Experimental data reported in publication PMC12396409, “Screening and hit evaluation of a microbial metabolite library against the pathogenic Plasmodium falciparum and Toxoplasma gondii parasites” (International Journal for Parasitology: Drugs and Drug …, 2025).
Counter-ions that a name gives are not always drawn. Like-named read-outs stand apart in the source and are kept apart here.

Assays:
[1] = system: P. falciparum 3D7 parasites; experiment: P. falciparum growth inhibition assay, 1-cycle (72 h treatment), SYBR DNA staining (library screen at 2 μg/mL and dose-response); assay type: cell-based, Plasmodium falciparum
[2] = system: P. falciparum 3D7 parasites; experiment: P. falciparum growth inhibition assay, 2-cycle (120 h treatment), delayed-death screen and dose-response; assay type: cell-based, Plasmodium falciparum; conditions: for activity at 2 µg/mL: Plasmodium falciparum
[3] = system: T. gondii RH strain (RH-Tub-eYFP) tachyzoites; experiment: microbe, parasite or virus in culture; assay type: cell-based, Toxoplasma gondii; conditions: 72 h
[4] = library screen at 2 μg/mL, 72 h, % growth, replicate 1
[5] = library screen at 2 μg/mL, 72 h, % growth, replicate 2
[6] = library screen at 2 μg/mL, 120 h, % growth, replicate 1
[7] = library screen at 2 μg/mL, 120 h, % growth, replicate 2
[8] = library screen at 2 μg/mL, % growth, replicate 1
[9] = library screen at 2 μg/mL, % growth, replicate 2
[10] = P. falciparum, 72 h, parasite screen 2 μg/mL, % growth, replicate 1
[11] = P. falciparum, 72 h, parasite screen 2 μg/mL, % growth, replicate 2
[12] = P. falciparum, 120 h, parasite screen 2 μg/mL, % growth, replicate 1
[13] = P. falciparum, 120 h, parasite screen 2 μg/mL, % growth, replicate 2
[14] = T. gondii, parasite screen 2 μg/mL, % growth, replicate 1
[15] = T. gondii, parasite screen 2 μg/mL, % growth, replicate 2
[16] = Plasmodium falciparum, 3D7, P. falciparum, 72 h, screen at 2 μg/mL, replicate 1, read-out: Pf_72h_%Growth_Rep1
[17] = Plasmodium falciparum, 3D7, P. falciparum, 72 h, screen at 2 μg/mL, replicate 2, read-out: Pf_72h_%Growth_Rep2
[18] = 3D7, P. falciparum, 120 h, screen at 2 μg/mL, replicate 1, read-out: Pf_120h_%Growth_Rep1
[19] = 3D7, P. falciparum, 120 h, screen at 2 μg/mL, replicate 2, read-out: Pf_120h_%Growth_Rep2
[20] = Toxoplasma gondii, T. gondii, screen at 2 μg/mL, replicate 1, read-out: Tg_72h_%Growth_Rep1
[21] = Toxoplasma gondii, T. gondii, screen at 2 μg/mL, replicate 2, read-out: Tg_72h_%Growth_Rep2
[22] = P. falciparum 3D7, 72 h, library screen at 2 μg/mL, % growth, replicate 1
[23] = P. falciparum 3D7, 72 h, library screen at 2 μg/mL, % growth, replicate 2
[24] = P. falciparum 3D7, 120 h, library screen at 2 μg/mL, % growth, replicate 1
[25] = P. falciparum 3D7, 120 h, library screen at 2 μg/mL, % growth, replicate 2
[26] = T. gondii RH, library screen at 2 μg/mL, % growth, replicate 1
[27] = T. gondii RH, library screen at 2 μg/mL, % growth, replicate 2

C=C(C)[C@H](C)CC[C@](C)(O)[C@H]1CC[C@]2(C)[C@@H]1CC[C@@H]1[C@@]3(C)CC[C@H](O)C(C)(C)[C@@H]3CC[C@]12C [Carnaubadiol]
Pf_72h_%Growth_Rep1 ([1]; P. falciparum, 72 h, screen at 2 μg/mL, replicate 1): 84.27% | Pf_72h_%Growth_Rep2 ([1]; P. falciparum, 72 h, screen at 2 μg/mL, replicate 2): 81.18% | Pf_120h_%Growth_Rep1 ([2]; P. falciparum, 120 h, screen at 2 μg/mL, replicate 1): 92.23% | Pf_120h_%Growth_Rep2 ([2]; P. falciparum, 120 h, screen at 2 μg/mL, replicate 2): 87.62% | Tg_72h_%Growth_Rep1 ([3]; T. gondii, screen at 2 μg/mL, replicate 1): 149.01% | Tg_72h_%Growth_Rep2 ([3]; T. gondii, screen at 2 μg/mL, replicate 2): 97.97%

Cc1c2c(c(O)c3c(O)cccc13)C(=O)[C@]1(O)C(=O)C(C(N)=O)=C(O)[C@@H](N(C)C)[C@@H]1C2 [Anhydrotetracycline hydrochloride]
activity at 2 µg/mL ([1]; Plasmodium falciparum, 3D7, library screen at 2 μg/mL, 72 h, % growth, replicate 1, read-out: Pf_72h_%Growth_Rep1): 77.2% | activity at 2 µg/mL ([1]; Plasmodium falciparum, 3D7, library screen at 2 μg/mL, 72 h, % growth, replicate 2, read-out: Pf_72h_%Growth_Rep2): 74% | activity at 2 µg/mL ([2]; 3D7, library screen at 2 μg/mL, 120 h, % growth, replicate 1, read-out: Pf_120h_%Growth_Rep1): 52.2% | activity at 2 µg/mL ([2]; 3D7, library screen at 2 μg/mL, 120 h, % growth, replicate 2, read-out: Pf_120h_%Growth_Rep2): 57% | percent parasite growth at 2 µg/mL ([3]; Toxoplasma gondii, library screen at 2 μg/mL, % growth, replicate 1, read-out: Tg_72h_%Growth_Rep1): 89.6% | percent parasite growth at 2 µg/mL ([3]; Toxoplasma gondii, library screen at 2 μg/mL, % growth, replicate 2, read-out: Tg_72h_%Growth_Rep2): 88.3%

Cc1c2c(c(O)c3c(O)cccc13)C(=O)O[C@@H]2[C@@H]1[C@H](O)C(=O)C(C(N)=O)=C(O)[C@H]1N(C)C [Apooxytetracycline, alpha-]
Pf_72h_%Growth_Rep1 [1, 4]: 86.78% | Pf_72h_%Growth_Rep2 [1, 5]: 89.73% | Pf_120h_%Growth_Rep1 [2, 6]: 91.28% | Pf_120h_%Growth_Rep2 [2, 7]: 90.91% | Tg_72h_%Growth_Rep1 [3, 8]: 81.07% | Tg_72h_%Growth_Rep2 [3, 9]: 111.56%

CC[C@H](C)[C@H]1NC(=O)c2c1n(C)c1ccccc1c2=O [Quinolactacin A1]
Pf_72h_%Growth_Rep1 [1, 10]: 15.83% | Pf_72h_%Growth_Rep2 [1, 11]: 6.94% | Pf_120h_%Growth_Rep1 [2, 12]: 17.07% | Pf_120h_%Growth_Rep2 [2, 13]: -10.01% | Tg_72h_%Growth_Rep1 [3, 14]: 131.04% | Tg_72h_%Growth_Rep2 [3, 15]: 75.52%

C[C@@H]1C[C@H](C)C[C@H](C)[C@@H](O)CC(=O)O[C@H]([C@@H]2CCC[C@H]2C(=O)O)C/C=C/C=C(/C#N)[C@H](O)[C@@H](C)C1 [Borrelidin]
activity at 2 µg/mL [1, 16]: 2.87% | activity at 2 µg/mL [1, 17]: -1.49% | activity at 2 µg/mL [2, 18]: 4.36% | activity at 2 µg/mL [2, 19]: 5.57% | percent parasite growth at 2 µg/mL [3, 20]: 0.76% | percent parasite growth at 2 µg/mL [3, 21]: 1.62%

C=C[C@]1(C)C[C@@H](OC(=O)CO)[C@]2(C)[C@H](C)CC[C@]3(CCC(=O)[C@H]32)[C@@H](C)[C@@H]1O [Pleuromutilin]
IC50 ([1]; Plasmodium falciparum, 3D7, 72 h treatment, mean ± S.D., n ≥ 3, read-out: IC50 (μM), P. falciparum): > 1 µM | Screen (P. falciparum) ([1]; library screen at 2 μg/mL, 3D7, 72 h, DD from the 120 h timepoint): I, I | activity in 120 h dose-response assay against P. falciparum ([2]; 120 h): did not display any activity | IC50 ([3]; Toxoplasma gondii, RH strain, mean ± S.D., n ≥ 3, read-out: IC50 (μM), T. gondii (converted)): > 1 µM | Screen (T. gondii) ([3]; library screen at 2 μg/mL, RH strain): I, I

COC(=O)C1(O)CC2OC1(C)n1c3ccccc3c3c4c(c5c6ccccc6n2c5c31)CNC4=O (centres unmarked) [BIA-K1225]
Pf_72h_%Growth_Rep1 [1, 22]: 4.93% | Pf_72h_%Growth_Rep2 [1, 23]: 0.48% | Pf_120h_%Growth_Rep1 [2, 24]: 29.46% | Pf_120h_%Growth_Rep2 [2, 25]: 12.07% | Tg_72h_%Growth_Rep1 [3, 26]: -1.01% | Tg_72h_%Growth_Rep2 [3, 27]: 0.85%

COc1ccc2c(c1)C(=O)NC(Cc1ccccc1)C(=O)NCCC(=O)N1CCCC1C(=O)N2 (centres unmarked) [Aspercolorin]
Pf_72h_%Growth_Rep1 [1, 4]: 96.39% | Pf_72h_%Growth_Rep2 [1, 5]: 82.46% | Pf_120h_%Growth_Rep1 [2, 6]: 146.59% | Pf_120h_%Growth_Rep2 [2, 7]: 102.81% | Tg_72h_%Growth_Rep1 [3, 8]: 77.01% | Tg_72h_%Growth_Rep2 [3, 9]: 95.41%

CC1(C)C=Cc2cc3ccc(=O)oc3cc2O1 [Xanthyletin]
activity at 2 µg/mL [1, 16]: 88.6% | activity at 2 µg/mL [1, 17]: 22.4% | activity at 2 µg/mL [2, 18]: 106% | activity at 2 µg/mL [2, 19]: 81.1% | percent parasite growth at 2 µg/mL [3, 20]: 146% | percent parasite growth at 2 µg/mL [3, 21]: 65.7%

CO[C@H]1\C=C/C=C\C=C/C[C@H](OC(=O)[C@@H](C)NC(=O)C2CCCCC2)[C@H](C)[C@@H](O)/C(C)=C\CCc2cc(O)cc(c2O)NC(=O)C1 [Ansatrienin B]
Pf_72h_%Growth_Rep1 [1, 4]: 4.68% | Pf_72h_%Growth_Rep2 [1, 5]: 7.24% | Pf_120h_%Growth_Rep1 [2, 6]: -0.38% | Pf_120h_%Growth_Rep2 [2, 7]: 4.42% | Tg_72h_%Growth_Rep1 [3, 8]: 19.16% | Tg_72h_%Growth_Rep2 [3, 9]: 11.14%

CCC(C)C1OC2(CCC1C)CC1CC(CC=C(C)C(OC3CC(OC)C(O)C(C)O3)C(C)C=CC=C3COC4C(O)C(C)=CC(C(=O)O1)C34O)O2 (centres unmarked) [BIA-I1150]
Pf_72h_%Growth_Rep1 [1, 22]: 84.82% | Pf_72h_%Growth_Rep2 [1, 23]: 14.34% | Pf_120h_%Growth_Rep1 [2, 24]: 91.15% | Pf_120h_%Growth_Rep2 [2, 25]: 112.03% | Tg_72h_%Growth_Rep1 [3, 26]: 134.07% | Tg_72h_%Growth_Rep2 [3, 27]: 88.13%

COc1ccc2c(c1)N(C(C)=O)[C@H]1[C@@H]3CO[C@H](C)[C@@H]4CN5CC[C@]21[C@@H]5C[C@H]34 [Strychnospermine]
Pf_72h_%Growth_Rep1 [1, 10]: 72.81% | Pf_72h_%Growth_Rep2 [1, 11]: 85.90% | Pf_120h_%Growth_Rep1 [2, 12]: 157.71% | Pf_120h_%Growth_Rep2 [2, 13]: 76.73% | Tg_72h_%Growth_Rep1 [3, 14]: 96.72% | Tg_72h_%Growth_Rep2 [3, 15]: 111.43%

CN1C(=O)c2ccccc2-n2c(nc3ccccc3c2=O)[C@@]12O[C@H]2c1ccccc1 [Benzomalvin C]
Pf_72h_%Growth_Rep1 [1, 4]: 80.29% | Pf_72h_%Growth_Rep2 [1, 5]: 84.20% | Pf_120h_%Growth_Rep1 [2, 6]: 69.94% | Pf_120h_%Growth_Rep2 [2, 7]: 71.59% | Tg_72h_%Growth_Rep1 [3, 8]: 89.14% | Tg_72h_%Growth_Rep2 [3, 9]: 100.15%

CCCCCCCCCC(=O)N[C@H]1[C@H](Oc2c3cc4cc2Oc2ccc(cc2Cl)[C@@H](O[C@@H]2O[C@H](CO)[C@@H](O)[C@H](O)[C@H]2NC(C)=O)[C@@H]2NC(=O)[C@H](NC(=O)[C@@H]4NC(=O)[C@H]4NC(=O)[C@H](Cc5ccc(c(Cl)c5)O3)NC(=O)[C@H](N)c3ccc(O)c(c3)Oc3cc(O)cc4c3)c3ccc(O)c(c3)-c3c(O[C@H]4O[C@H](CO)[C@@H](O)[C@H](O)[C@@H]4O)cc(O)cc3[C@@H](C(=O)O)NC2=O)O[C@H](CO)[C@@H](O)[C@@H]1O [Teicoplanin A2-3]
activity at 2 µg/mL ([1]; Plasmodium falciparum, 3D7, 72 h, P. falciparum, 72 h, parasite screen 2 μg/mL, % growth, replicate 1, read-out: Pf_72h_%Growth_Rep1): 88.9% | activity at 2 µg/mL ([1]; Plasmodium falciparum, 3D7, 72 h, P. falciparum, 72 h, parasite screen 2 μg/mL, % growth, replicate 2, read-out: Pf_72h_%Growth_Rep2): 128% | activity at 2 µg/mL ([2]; 3D7, 120 h, P. falciparum, 120 h, parasite screen 2 μg/mL, % growth, replicate 1, read-out: Pf_120h_%Growth_Rep1): 110% | activity at 2 µg/mL ([2]; 3D7, 120 h, P. falciparum, 120 h, parasite screen 2 μg/mL, % growth, replicate 2, read-out: Pf_120h_%Growth_Rep2): 97% | percent parasite growth at 2 µg/mL ([3]; Toxoplasma gondii, T. gondii, parasite screen 2 μg/mL, % growth, replicate 1, read-out: Tg_72h_%Growth_Rep1): 112% | percent parasite growth at 2 µg/mL ([3]; Toxoplasma gondii, T. gondii, parasite screen 2 μg/mL, % growth, replicate 2, read-out: Tg_72h_%Growth_Rep2): 84.1%
